The text below walks through data of patent US12312332B2 (Merck Sharp & Dohme LLC., priority 2019, dated 2025).

This assay concerns the target T1, human OX2R (Homo sapiens, UniProt O43614).
T1 construct: expressed in transfected cells; host or cells: Chinese hamster ovary (CHO) cells, kept under G418 selection
T1 sequence (O43614 1-444): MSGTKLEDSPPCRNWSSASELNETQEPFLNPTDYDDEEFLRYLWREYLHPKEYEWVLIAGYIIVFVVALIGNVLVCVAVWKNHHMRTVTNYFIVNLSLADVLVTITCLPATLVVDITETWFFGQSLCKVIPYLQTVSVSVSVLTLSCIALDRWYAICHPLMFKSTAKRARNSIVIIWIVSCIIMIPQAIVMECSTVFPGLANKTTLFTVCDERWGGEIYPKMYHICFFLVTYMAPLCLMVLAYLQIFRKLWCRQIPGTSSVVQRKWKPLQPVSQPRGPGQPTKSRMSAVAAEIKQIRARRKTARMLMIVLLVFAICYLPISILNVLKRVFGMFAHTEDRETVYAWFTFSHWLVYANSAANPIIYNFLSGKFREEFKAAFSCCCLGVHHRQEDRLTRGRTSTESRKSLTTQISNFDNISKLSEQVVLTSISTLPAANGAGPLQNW
The assay can be described thus: IPOne (IP-One) orexin receptor agonist assay in CHO cells expressing human OX2R. The following applies: for EC50: CHO cells expressing human OX2R, IP-One detection, 2 hours incubation, four parameter logistic fit, read-out: OX2R Potency, EC50; for % max agonist effect (Emax): human OX2R, percentage of sample raw value/mean max effect (reference compound at 1 uM with 100% activity). Type of assay: cell-based. The text has this:
The utility of the compounds in accordance with the present invention as orexin receptor OX1R and/or OX2R agonists may be readily determined without undue experimentation by methodology well known in the art. Both the OX1R and/or OX2R G-coupled protein receptors (GPCRs) couple through the Gaq signaling pathway, which ultimately promotes calcium mobilization via inositol triphosphate (IP3) production. […] The utility of the compounds in accordance with the present invention as orexin receptor OX1R and/or OX2R agonists may be determined utilizing this assay.
In a typical experiment, the OX1 and OX2 receptor agonist activity is determined in accordance with the following general experimental method. Chinese hamster ovary (CHO) cells expressing human OX1R and/or the human OX2R were grown in Iscove's modified DMEM containing glutaMAX™, 1% G418, 100 U/mL penicillin, 100 μg/mL streptomycin and 10% heat-inactivated qualified fetal bovine serum (FBS). […] During this incubation, IP-one detection reagents were prepared (38:1:1 lysis buffer:D2:AB-cryptate reagents).
For each compound, data were fit to a four parameter logistic fit (ActivityBase software) and the EC50 was reported as the inflection point of the resulting curve. Percent effect for each test compound was determined as the percentage of sample raw value/mean max effect, where the mean max effect was derived from the mean raw value of 32 control wells per assay plate (using Orexin A (cat #003-30) at 1 μM for human OX1R and a reference compound at 1 uM with 100% activity previously established by comparison to Orexin A for human OX2R). The intrinsic orexin receptor agonist activity of a compound which may be used in the present invention may be determined by these assays.

Consider `CS(=O)(=O)N[C@H]1CCN(c2cccc(C#N)n2)[C@H]1CO[C@H]1CC[C@@H](c2ccccc2)CC1` [Example 139, N-((2R,3S)-1-(6-cyanopyridin-2-yl)-2-((((CIS)-4-phenylcyclohexyl)oxy)methyl)pyrrolidin-3-yl)methanesulfonamide], for which the 50% effective concentration (EC50) is 1400 nM and the “% max agonist effect (Emax)” value came out at 68.5%. For `CS(=O)(=O)N[C@H]1CCN(c2cncc(C(F)(F)F)c2)[C@H]1CO[C@H]1CC[C@@H](c2ccccc2)CC1` [Example 50, N-((2R,3S)-2-((((CIS)-4-phenylcyclohexyl)oxy)methyl)-1-(5-(trifluoromethyl)pyridin-3-yl)pyrrolidin-3-yl)methanesulfonamide], the EC50 amounted to 944 nM and the “% max agonist effect (Emax)” value is given as 95.1%. Consider `Cc1scnc1N1CC[C@H](NS(C)(=O)=O)[C@@H]1CO[C@H]1CC[C@@H](c2ccccc2)CC1` [Example 84, N-((2R,3S)-1-(5-methylthiazol-4-yl)-2-((((CIS)-4-phenylcyclohexyl)oxy)methyl)pyrrolidin-3-yl)methanesulfonamide], for which the EC50 was determined as 109 nM and the “% max agonist effect (Emax)” value came out at 100.7%. In the same order, the values of `CS(=O)(=O)N[C@H]1CCN(c2nccs2)[C@H]1CO[C@H]1CC[C@@H](c2ccccc2)CC1` [Example 27, N-((2R,3S)-2-((((CIS)-4-phenylcyclohexyl)oxy)methyl)-1-(thiazol-2-yl)pyrrolidin-3-yl)methanesulfonamide] are 70.2 nM and 98.9%. With `CS(=O)(=O)N[C@H]1CCN(c2cnc3occc3c2)[C@H]1CO[C@H]1CC[C@@H](c2ccccc2)CC1` [Example 92, N-((2R,3S)-1-(furo[2,3-b]pyridin-5-yl)-2-((((CIS)-4-phenylcyclohexyl)oxy)methyl)pyrrolidin-3-yl)methanesulfonamide], the EC50 was found to be 326 nM and the “% max agonist effect (Emax)” value is given as 100.2%. Consider `CS(=O)(=O)N[C@H]1CCN(c2cc(OC(F)F)c(F)cn2)[C@H]1CO[C@H]1CC[C@@H](c2ccccc2)CC1` [Example 140, N-((2R,3S)-1-(4-(difluoromethoxy)-5-fluoropyridin-2-yl)-2-((((CIS)-4-phenylcyclohexyl)oxy)methyl)pyrrolidin-3-yl)methanesulfonamide], for which the EC50 came to 299 nM and the “% max agonist effect (Emax)” value came to 98.8%. Take `COc1cccnc1N1CC[C@H](NS(C)(=O)=O)[C@@H]1CO[C@H]1CC[C@@H](c2ccccc2)CC1` [Example 141, N-((2R,3S)-1-(3-methoxypyridin-2-yl)-2-((((CIS)-4-phenylcyclohexyl)oxy)methyl)pyrrolidin-3-yl)methanesulfonamide]: the half-maximal effective concentration (EC50) was found to be 7.1 nM and the “% max agonist effect (Emax)” value is 100.2%. In the same order, the values of `C[C@@H]1C[C@H](NS(=O)(=O)N(C)C)[C@H](CO[C@H]2CC[C@@H](c3cccc(F)c3)CC2)N1c1cc(O)c(Cl)cn1` [Example 95, N′-((2R,3S,5R)-1-(5-chloro-4-hydroxypyridin-2-yl)-2-((((CIS)-4-(3-fluorophenyl)cyclohexyl)oxy)methyl)-5-methylpyrrolidin-3-yl)-N,N-dimethyl-sulfamide] are 0.23 nM and 100.5%. On to `CS(=O)(=O)N[C@H]1CCN(c2ncccc2F)[C@H]1CO[C@H]1CC[C@@H](c2ccccc2)CC1` [Example 131, N-((2R,3S)-1-(3-fluoropyridin-2-yl)-2-((((CIS)-4-phenylcyclohexyl)oxy)methyl)pyrrolidin-3-yl)methanesulfonamide], for which the EC50 was determined as 736 nM and the “% max agonist effect (Emax)” value is recorded as 98.8%. The like results for `CS(=O)(=O)N[C@H]1CCN(c2ccc(C#N)nc2)[C@H]1CO[C@H]1CC[C@@H](c2ccccc2)CC1` [Example 145, N-((2R,3S)-1-(6-cyanopyridin-3-yl)-2-((((CIS)-4-phenylcyclohexyl)oxy)methyl)pyrrolidin-3-yl)methanesulfonamide] were, in that order, 9.8 nM and 100.6%.

Take `CS(=O)(=O)N[C@H]1CCN(c2ncccc2C(F)(F)F)[C@H]1CO[C@H]1CC[C@@H](c2ccccc2)CC1` [Example 126, N-((2R,3S)-2-((((CIS)-4-phenylcyclohexyl)oxy)methyl)-1-(3-(trifluoromethyl)pyridin-2-yl)pyrrolidin-3-yl)methanesulfonamide]: the EC50 worked out at 370 nM and the “% max agonist effect (Emax)” value is on record as 100%. As for `CS(=O)(=O)N[C@H]1CCN(c2ncccc2O)[C@H]1CO[C@H]1CC[C@@H](c2ccccc2)CC1` [Example 137, N-((2R,3S)-1-(3-hydroxypyridin-2-yl)-2-((((CIS)-4-phenylcyclohexyl)oxy)methyl)pyrrolidin-3-yl)methanesulfonamide], the “% max agonist effect (Emax)” value came to 100.5%. As to `CS(=O)(=O)N[C@H]1CCN(c2cncc(O)c2)[C@H]1CO[C@H]1CC[C@@H](c2ccccc2)CC1` [Example 47, N-((2R,3S)-1-(5-hydroxypyridin-3-yl)-2-((((CIS)-4-phenylcyclohexyl)oxy)methyl)pyrrolidin-3-yl)methanesulfonamide], the EC50 was found to be 9 nM and the “% max agonist effect (Emax)” value came out at 101.4%. In the same order, the values of `CS(=O)(=O)N[C@H]1CCN(c2nccc(O)c2F)[C@H]1CO[C@H]1CC[C@@H](c2ccccc2)CC1` [Example 72, N-((2R,3S)-1-(3-fluoro-4-hydroxypyridin-2-yl)-2-((((CIS)-4-phenylcyclohexyl)oxy)methyl)pyrrolidin-3-yl)methanesulfonamide] are 1.2 nM and 99.9%.

On to `CS(=O)(=O)N[C@H]1CCN(c2nccc(O)c2F)[C@H]1CO[C@H]1CC[C@@H](c2c(F)ccc(F)c2F)CC1` [Example 161, N-((2R,3S)-1-(3-fluoro-4-hydroxypyridin-2-yl)-2-((((CIS)-4-(2,3,6-trifluorophenyl)cyclohexyl)oxy)methyl)pyrrolidin-3-yl)methanesulfonamide], for which the EC50 came to 2 nM and the “% max agonist effect (Emax)” value is 100.3%. Turning to `COC[C@@H]1C[C@H](NS(C)(=O)=O)[C@H](CO[C@H]2CC[C@@H](c3cccc(F)c3)CC2)N1c1cc(O)c(F)cn1` [Example 85, N-((2R,3S,5S)-1-(5-fluoro-4-hydroxypyridin-2-yl)-2-((((CIS)-4-(3-fluorophenyl)cyclohexyl)-oxy)methyl)-5-(methoxymethyl)pyrrolidin-3-yl)methanesulfonamide], the EC50 came out at 0.54 nM and the “% max agonist effect (Emax)” value was 101.1%. With `Cc1sc(N2CC[C@H](NS(C)(=O)=O)[C@@H]2CO[C@H]2CC[C@@H](c3ccccc3)CC2)nc1O` [Example 105, N-((2R,3S)-1-(4-hydroxy-5-methylthiazol-2-yl)-2-((((CIS)-4-phenylcyclohexyl)oxy)methyl)pyrrolidin-3-yl)methanesulfonamide], the EC50 came out at 703 nM and the “% max agonist effect (Emax)” value stood at 97.9%. The like results for `Cc1nnc(N2CC[C@H](NS(C)(=O)=O)[C@@H]2CO[C@H]2CC[C@@H](c3ccccc3)CC2)s1` (relative stereo) [Example 10, N-((CIS)-1-(5-methyl-1,3,4-thiadiazol-2-yl)-2-((((CIS)-4-phenylcyclohexyl)oxy)methyl)pyrrolidin-3-yl)methanesulfonamide] were, in that order, 242 nM and 99.6%.
